According to patent US12391737B2, “Soluble NPY2 receptor agonists” (Boehringer Ingelheim International GmbH, priority 2020, dated 2025):

Key:
[1] = biological target: T1, Human Neuropeptide Y2 Receptor (Homo sapiens, UniProt P49146); assay: Radioligand binding competition assay (RLB); conditions: Table 3, 125I-PYY(1-36) competition; read-out: Ki
T1 construct: purchased CHEMICON HTS066M
T1 sequence (P49146 1-381): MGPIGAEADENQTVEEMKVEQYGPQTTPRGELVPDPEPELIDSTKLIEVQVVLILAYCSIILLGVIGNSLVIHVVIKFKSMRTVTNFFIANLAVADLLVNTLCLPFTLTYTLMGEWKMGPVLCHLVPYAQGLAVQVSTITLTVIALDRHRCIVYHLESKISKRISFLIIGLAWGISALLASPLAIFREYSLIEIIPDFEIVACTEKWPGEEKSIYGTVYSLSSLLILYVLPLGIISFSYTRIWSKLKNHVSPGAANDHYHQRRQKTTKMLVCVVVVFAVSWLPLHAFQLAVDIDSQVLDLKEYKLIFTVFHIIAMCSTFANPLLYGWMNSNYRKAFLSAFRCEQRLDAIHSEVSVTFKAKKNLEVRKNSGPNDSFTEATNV
Summary of the method: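 Competition binding used membranes expressing the receptor (0.5 μg protein/well) in 50 mM HEPES, 5 mM MgCl2, 1 mM CaCl2, pH 7.4 with 0.2% ovalbumin, incubated 2 h at room temperature with shaking. Bound radioligand was collected by filtration onto PEI-soaked GF/C filters and counted; IC50 from nonlinear sigmoidal fits.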

[2] = Solubility determination; conditions: for Sol6: pH 6; for Sol7: pH 7
Summary of the method: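 Shake-flask style: 10 mg/ml peptide (TFA salt), 0.1 M sodium diphosphate pH 6.4/7.0, 600 rpm, 2 h, RT; filter; dilute 1 mg/ml in 50% MeCN; RP-UPLC, 0–100% B over 2 min, 50 °C. Solubility = sample/control area ratio. Final pH recorded.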

[3] = biological target: T2, human NPY5 receptor (hY5R) (Homo sapiens, UniProt Q15761); assay: HTRF cAMP Gi assay, hY5R
T2 sequence (Q15761 1-445): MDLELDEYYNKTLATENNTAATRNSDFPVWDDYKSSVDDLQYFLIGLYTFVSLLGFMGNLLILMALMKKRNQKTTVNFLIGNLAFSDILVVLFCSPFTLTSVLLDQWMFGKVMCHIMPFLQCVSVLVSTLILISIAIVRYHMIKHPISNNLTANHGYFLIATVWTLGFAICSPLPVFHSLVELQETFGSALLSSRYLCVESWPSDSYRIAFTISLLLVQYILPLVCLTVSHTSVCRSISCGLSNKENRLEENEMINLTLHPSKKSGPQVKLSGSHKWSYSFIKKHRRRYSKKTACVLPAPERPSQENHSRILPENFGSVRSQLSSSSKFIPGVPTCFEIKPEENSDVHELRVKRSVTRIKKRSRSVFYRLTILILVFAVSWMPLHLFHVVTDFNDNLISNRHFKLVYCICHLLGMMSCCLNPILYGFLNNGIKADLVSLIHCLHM

SMILES | Ki [1] | Sol6 [2] | Sol7 [2] | EC50 [3]
CC[C@H](C)[C@H](NC(=O)[C@H](CCC(=O)O)NC(=O)[C@H](CCC(=O)O)NC(=O)[C@@H]1CCCN1C(=O)[C@H](CO)NC(=O)[C@H](C)NC(=O)[C@H](CC(=O)O)NC(=O)[C@H](C)NC(=O)[C@H](CCC(=O)O)NC(=O)[C@@H]1CCCN1C(=O)[C@H](CCCCNC(=O)CCCCCNC(=O)CC[C@H](NC(=O)CCCCCCCCCCCCCCCCC(=O)O)C(=O)O)NC(=O)[C@H](CCC(=O)O)NC(=O)[C@@H]1CCCN1C(=O)[C@H](C)NC(=O)CC(C)C)C(=O)N[C@@H](CCC(N)=O)C(=O)N[C@@H](CCCNC(=N)N)C(=O)N[C@@H](Cc1ccc(O)cc1)C(=O)N[C@@H](Cc1ccc(O)cc1)C(=O)N[C@H](C(=O)N[C@@H](CO)C(=O)N[C@@H](CC(C)C)C(=O)N[C@@H](CCCNC(=N)N)C(=O)N[C@@H](Cc1c[nH]cn1)C(=O)N[C@@H](Cc1ccc(O)cc1)C(=O)N[C@@H](Cc1ccc(O)cc1)C(=O)N[C@@H](CC(N)=O)C(=O)N[C@@H](Cc1c[nH]c2ccccc12)C(=O)N[C@@H](CC(C)C)C(=O)N[C@H](C(=O)N[C@@H](CCCNC(=N)N)C(=O)N[C@@H](CCC(N)=O)C(=O)N[C@@H](CCCNC(=N)N)C(=O)N[C@@H](Cc1ccc(O)cc1)C(N)=O)[C@@H](C)O)C(C)C [Compound 140, N{alpha-4}-(3-methylbutanoyl)-N{epsilon-7}-(6-[(4S)-4-carboxy-4-(17-carboxyheptadecanamido)butanamido]hexanoyl)-[4A,7K,9E,10A,17I,18Q,22V,28Y,30W,31L]-hPYY(4-36)] | 1.41 nM | 9.9 mg/mL | 9.3 mg/mL | > 5000 nM
CC[C@H](C)[C@H](NC(=O)[C@H](Cc1ccc(O)cc1)NC(=O)[C@H](Cc1ccc(O)cc1)NC(=O)[C@H](CCCNC(=N)N)NC(=O)[C@H](CCC(N)=O)NC(=O)[C@H](CC(C)C)NC(=O)[C@H](CCC(=O)O)NC(=O)[C@H](CCC(=O)O)NC(=O)[C@@H]1CCCN1C(=O)[C@H](CO)NC(=O)[C@H](C)NC(=O)[C@H](CC(=O)O)NC(=O)[C@H](CCC(=O)O)NC(=O)[C@H](CCC(=O)O)NC(=O)[C@@H]1CCCN1C(=O)[C@H](CCCCNC(=O)CCCCCNC(=O)CC[C@H](NC(=O)CCCCCCCCCCCCCCCCC(=O)O)C(=O)O)NC(=O)[C@H](CCC(=O)O)NC(=O)[C@@H]1CCCN1C(=O)[C@H](C)NC(=O)CC(C)C)C(=O)N[C@@H](CO)C(=O)N[C@@H](CC(C)C)C(=O)N[C@@H](CCCNC(=N)N)C(=O)N[C@@H](Cc1c[nH]cn1)C(=O)N[C@@H](Cc1ccc(O)cc1)C(=O)N[C@@H](Cc1ccc(O)cc1)C(=O)N[C@@H](CC(N)=O)C(=O)N[C@@H](Cc1c[nH]c2ccccc12)C(=O)N[C@@H](CC(C)C)C(=O)N[C@H](C(=O)N[C@@H](CCCNC(=N)N)C(=O)N[C@@H](CCC(N)=O)C(=O)N[C@@H](CCCNC(=N)N)C(=O)N[C@@H](Cc1ccc(O)cc1)C(N)=O)[C@@H](C)O [Compound 76, N{alpha-4}-(3-methylbutanoyl)-N{epsilon-7}-(6-[(4S)-4-carboxy-4-(17-carboxyheptadecanamido)butanamido]hexanoyl)-[4A,7K,9E,18Q,22I,28Y,30W,31L]-hPYY(4-36)] | 2.68 nM | 10.0 mg/mL | 10.0 mg/mL | > 5000 nM
CC[C@H](C)[C@H](NC(=O)[C@H](CCC(=O)O)NC(=O)[C@H](CCC(=O)O)NC(=O)[C@@H]1CCCN1C(=O)[C@H](CO)NC(=O)[C@H](C)NC(=O)[C@H](CC(=O)O)NC(=O)[C@H](CCC(=O)O)NC(=O)[C@H](CCC(=O)O)NC(=O)[C@@H]1CCCN1C(=O)[C@H](CCCCNC(=O)CCCCCNC(=O)CC[C@H](NC(=O)CCCCCCCCCCCCCCCCC(=O)O)C(=O)O)NC(=O)[C@H](CCC(=O)O)NC(=O)[C@@H]1CCCN1C(=O)[C@H](C)NC(=O)CC(C)C)C(=O)N[C@@H](CCC(N)=O)C(=O)N[C@@H](CCCNC(=N)N)C(=O)N[C@@H](Cc1ccc(O)cc1)C(=O)N[C@@H](Cc1ccc(O)cc1)C(=O)N[C@H](C(=O)N[C@@H](CO)C(=O)N[C@@H](CC(C)C)C(=O)N[C@@H](CCCNC(=N)N)C(=O)N[C@@H](Cc1c[nH]cn1)C(=O)N[C@@H](Cc1ccc(O)cc1)C(=O)N[C@@H](Cc1ccc(O)cc1)C(=O)N[C@@H](CC(N)=O)C(=O)N[C@@H](Cc1c[nH]c2ccccc12)C(=O)N[C@@H](CC(C)C)C(=O)N[C@H](C(=O)N[C@@H](CCCNC(=N)N)C(=O)N[C@@H](CCC(N)=O)C(=O)N[C@@H](CCCNC(=N)N)C(=O)N[C@@H](Cc1ccc(O)cc1)C(N)=O)[C@@H](C)O)C(C)C [Compound 147, N{alpha-4}-(3-methylbutanoyl)-N{epsilon-7}-(6-[(4S)-4-carboxy-4-(17-carboxyheptadecanamido)butanamido]hexanoyl)-[4A,7K,9E,17I,18Q,22V,28Y,30W,31L]-hPYY(4-36)] | 5.04 nM | 9.4 mg/mL | 9.2 mg/mL | > 5000 nM
CC[C@H](C)[C@H](NC(=O)[C@H](CCC(=O)O)NC(=O)[C@H](CCC(=O)O)NC(=O)[C@@H]1CCCN1C(=O)[C@H](CO)NC(=O)[C@H](C)NC(=O)[C@H](CC(=O)O)NC(=O)[C@H](CCC(=O)O)NC(=O)[C@H](CCC(=O)O)NC(=O)[C@@H]1CCCN1C(=O)[C@H](CCCCNC(=O)CCCCCNC(=O)CC[C@H](NC(=O)CCCCCCCCCCCCCCCCC(=O)O)C(=O)O)NC(=O)[C@H](CCC(=O)O)NC(=O)[C@@H]1CCCN1C(=O)[C@H](C)NC(=O)CC(C)C)C(=O)N[C@@H](CCC(N)=O)C(=O)N[C@@H](CCC(N)=O)C(=O)N[C@@H](Cc1ccc(O)cc1)C(=O)N[C@@H](Cc1ccc(O)cc1)C(=O)N[C@H](C(=O)N[C@@H](CO)C(=O)N[C@@H](CC(C)C)C(=O)N[C@@H](CCCNC(=N)N)C(=O)N[C@@H](Cc1c[nH]cn1)C(=O)N[C@@H](Cc1ccc(O)cc1)C(=O)N[C@@H](Cc1ccc(O)cc1)C(=O)N[C@@H](CC(N)=O)C(=O)N[C@@H](Cc1c[nH]c2ccccc12)C(=O)N[C@@H](CC(C)C)C(=O)N[C@H](C(=O)N[C@@H](CCCNC(=N)N)C(=O)N[C@@H](CCC(N)=O)C(=O)N[C@@H](CCCNC(=N)N)C(=O)N[C@@H](Cc1ccc(O)cc1)C(N)=O)[C@@H](C)O)C(C)C [Compound 15, N{alpha-4}-(3-methylbutanoyl)-N{epsilon-7}-(6-[(4S)-4-carboxy-4-(17-carboxyheptadecanamido)butanamido]hexanoyl)[4A,7K,9E,17I,18Q,19Q,22V,28Y,30W,31L]-hPYY(4-36)] | 3.98 nM | 9.3 mg/mL | 9.2 mg/mL | > 5000 nM
